Measurements published in ChEMBL document CHEMBL5260850, “The exploration of aza-quinolines as hematopoietic prostaglandin D synthase (H-PGDS) inhibitors with low brain exposure” (Bioorg Med Chem, 2020).
≈ marks a conversion by molar mass, not a printed value.

Columns and labels:
[1] = molecular target: Hematopoietic prostaglandin D synthase (Homo sapiens, UniProt O60760); test: Inhibition of human H-PGDS expressed in Escherichia coli BL21 DE3 cells assessed as reduction in PGD2 production using PGH2 as substrate by RapidFire High Throughput Mass spectrometry
Sequence of Hematopoietic prostaglandin D synthase (Homo sapiens, UniProt O60760) (O60760 whole entry): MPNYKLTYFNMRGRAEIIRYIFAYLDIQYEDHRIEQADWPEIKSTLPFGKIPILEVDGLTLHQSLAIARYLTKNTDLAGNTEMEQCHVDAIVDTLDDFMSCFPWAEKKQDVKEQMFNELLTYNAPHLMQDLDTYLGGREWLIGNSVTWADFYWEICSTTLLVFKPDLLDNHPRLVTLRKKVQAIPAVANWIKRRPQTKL

[2] = Half life in mouse S9 fraction pretreated for 5 mins followed by incubation with NADP for 30 secs and measured upto 45 mins by LC-MS/MS analysis; format: ADME, subcellular; conditions: time 3030 sec
[3] = Dose normalized AUC in mouse at 3 mg/kg, po; format: ADME, organism-based; design: unit not given here; conditions: in vivo
Albumin = Albumin (Homo sapiens, UniProt P02768); test: Protein binding in human serum albumin by HPLC analysis; format: ADME, cell-free; conditions: read-out: PB (converted)
Sequence of Albumin (P02768 whole entry): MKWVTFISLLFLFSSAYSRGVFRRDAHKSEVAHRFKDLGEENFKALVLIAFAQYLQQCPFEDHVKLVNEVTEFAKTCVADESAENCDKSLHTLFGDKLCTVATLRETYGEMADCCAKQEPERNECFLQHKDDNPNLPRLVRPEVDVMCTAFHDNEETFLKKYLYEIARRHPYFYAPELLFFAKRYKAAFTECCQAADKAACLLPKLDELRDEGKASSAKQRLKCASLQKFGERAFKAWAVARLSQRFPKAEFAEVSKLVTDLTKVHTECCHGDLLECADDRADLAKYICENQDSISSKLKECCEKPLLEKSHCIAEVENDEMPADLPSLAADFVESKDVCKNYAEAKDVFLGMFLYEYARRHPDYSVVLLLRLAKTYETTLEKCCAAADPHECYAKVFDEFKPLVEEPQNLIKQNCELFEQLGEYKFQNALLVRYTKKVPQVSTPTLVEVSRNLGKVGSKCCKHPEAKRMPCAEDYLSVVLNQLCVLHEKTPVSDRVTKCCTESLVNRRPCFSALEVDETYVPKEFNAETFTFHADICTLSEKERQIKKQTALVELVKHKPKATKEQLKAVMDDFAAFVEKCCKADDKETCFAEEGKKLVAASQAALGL

[4] = molecular target: T1, Hematopoietic prostaglandin D synthase (Rattus norvegicus, UniProt O35543); test: Inhibition of H-PGDS in rat RBL cells assessed as reduction in A23187-induced PGD2 production pretreated for 30 mins followed by A23187 addition for 30 mins by RapidFire Mass spectrometry; format: cell-based
T1 sequence (O35543 whole entry): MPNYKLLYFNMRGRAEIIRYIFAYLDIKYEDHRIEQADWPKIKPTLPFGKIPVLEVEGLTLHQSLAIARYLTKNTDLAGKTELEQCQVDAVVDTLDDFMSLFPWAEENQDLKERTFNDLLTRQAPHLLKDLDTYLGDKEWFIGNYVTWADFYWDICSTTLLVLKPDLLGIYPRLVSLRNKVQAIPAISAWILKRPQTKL

[5] = Solubility of the compound in FaSSIF at pH 6.5 measured after 4 hrs by HPLC-UV analysis; format: ADME
[6] = Apparent permeability, Papp of the compound at pH 7.4 incubated for 3 hrs by AMP based liquid chromatography; format: ADME; conditions: not told
[7] = Dissociation constant, pKa of the compound by UV spectroscopy or potentiometric analysis; format: physicochemical
[8] = Half life in mouse liver microsomes pretreated for 5 mins followed by incubation with NADP for 30 secs and measured upto 45 mins by LC-MS/MS analysis; format: ADME, Microsome; conditions: time 3030 sec
[9] = Terminal half life in mouse at 1 mg/kg, iv; format: ADME, organism-based; conditions: in vivo
[10] = Clearance in mouse at 1 mg/kg, iv; format: ADME, organism-based; conditions: in vivo
[11] = Oral bioavailability in mouse at 3 mg/kg; format: ADME, organism-based; conditions: in vivo
[12] = Ratio of drug level in brain to blood in mouse at 1 mg/kg, iv; format: ADME, organism-based; conditions: read-out: BBR
[13] = Volume of distribution at steady state in mouse at 1 mg/kg, iv; format: ADME, organism-based; conditions: in vivo, read-out: Vdss
[14] = Toxicity in chronic eccentric muscle damage C57BL/6N mouse model assessed as seizure-like activity at >=10 mg/kg, po and measured after 4 days; format: organism-based; conditions: in vivo, 96 h, time 4 day
[15] = Toxicity in chronic eccentric muscle damage C57BL/6N mouse model assessed as adverse effects at <=6 mg/kg, po administered for 60 days; format: organism-based; conditions: in vivo, 1440 h, time 60 day

Row | IC50 [1] [nM] | half-life [2] [h] | AUC/dose [3] | fraction unbound (Albumin) | EC50 [4] [nM] | solubility at 4 h [5] [µg/mL] | Papp at 3 h [6] [×10⁻⁶ cm/s] | pKa [7] | half-life [8] [h] | half-life ([9]; read-out: beta t1/2 (converted)) [h] | SMILES | clearance [10] [mL/min/kg] | bioavailability [11] [%] | Kp [12] | Vd [13] [L/kg] | Activity [14] | beta t1/2 ([9]; iv, 1 mg/kg) [h] | Activity [15]
1 | 56 | > 3 | 46.9 | 0.48 | 450 | 460 (≈ 1470 µM) | 3.8 |  |  |  | C[C@]1(O)C[C@@H](NC(=O)c2cnc3cc(N4CCC4)ncc3c2)C1 |  |  |  |  |  |  | 
2 | 30 |  | 64.9 | 0.27 | 150 | 24 (≈ 69.9 µM) |  | 2.58 | > 3 |  | COc1ccc2cc(C(=O)N[C@H]3CC[C@H](C(C)(C)O)CC3)cnc2n1 |  |  |  |  |  |  | 
3 | 3.9 | 2.68 | 41 | 0.21 | 24 | 11 (≈ 29.9 µM) | 7.8 |  |  |  | CC(C)(O)[C@H]1CC[C@H](NC(=O)c2cnc3cc(N4CCC4)ncc3c2)CC1 |  |  |  |  |  |  | 
4 | 12 | > 3 | 250 | 0.41 | 110 | 400 (≈ 1280 µM) | < 1 |  |  |  | O=C(N[C@H]1CCNC1=O)c1cnc2cc(N3CCC3)ncc2c1 |  |  |  |  |  |  | 
5 | 4.4 | > 3 | 73.7 | 0.22 | 14 | 270 (≈ 706 µM) | 2.5 |  |  |  | C[C@H]1CCN1c1ccc2cc(C(=O)N[C@H]3CC[C@H](C(C)(C)O)CC3)cnc2n1 |  |  |  |  |  |  | 
6 | 12 | > 3 | 19.3 | 0.27 | 170 | 13 (≈ 33.6 µM) |  |  |  |  | CC(C)(O)[C@H]1CC[C@H](NC(=O)c2cnc3cc(N4CC(F)C4)ncc3c2)CC1 |  |  |  |  |  |  | 
7 | 14 | > 3 | 1040 | 0.16 | 94 | 27 (≈ 76.4 µM) | 16.5 |  |  | 1.1 | CC(C)(O)[C@H]1CC[C@H](NC(=O)c2cnc3cc(C4CC4)ncc3c2)CC1 | 22 | 130 | 0.17 | 1.6 |  |  | 
8 | 5.3 | > 3 | 72.5 | 0.2 | 75 | 3 (≈ 8.14 µM) | 2.3 |  |  |  | CC(C)(O)[C@H]1CC[C@H](NC(=O)c2cnc3nc(N4CCC4)ccc3c2)CC1 |  |  |  |  |  |  | 
9 | 45 |  | 104 | 0.33 | 190 | 85 (≈ 248 µM) | 6.1 | < 2 | > 3 |  | COc1cc2ncc(C(=O)N[C@H]3CC[C@H](C(C)(C)O)CC3)cc2cn1 |  |  |  |  |  |  | 

Row | SMILES | IC50 [1] [nM] | half-life [2] [h] | AUC/dose [3] | fraction unbound (Albumin) | EC50 [4] [nM] | solubility at 4 h [5] [µg/mL] | Papp at 3 h [6] [×10⁻⁶ cm/s] | pKa [7] | half-life [8] [h] | half-life ([9]; read-out: beta t1/2 (converted)) [h] | clearance [10] [mL/min/kg] | bioavailability [11] [%] | Kp [12] | Vd [13] [L/kg] | Activity [14] | beta t1/2 ([9]; iv, 1 mg/kg) [h] | Activity [15]
10 | CC(C)(O)[C@H]1CC[C@H](NC(=O)c2cnc3cc(OC(F)F)ccc3c2)CC1 |  | > 3 |  | 0.12 | 160 | 70 (≈ 185 µM) |  | 2.43 |  |  | 5.6 | 61 | 0.59 | 1.7 | Toxic | 3.8 | Non-Toxic
